Data taken from ChEMBL document CHEMBL1142123, “Guttiferones K and L, antiproliferative compounds of Rheedia calcicola from the Madagascar rain forest” (J Nat Prod, 2007).
Converted amounts (≈) assume the structure as drawn.

Tested on: A2780
Assay: Antiproliferative activity against human A2780 cells
Assay type: functional, cell-based

Compound CC(C)=CCC[C@@]1(C)[C@H](CC=C(C)C)C[C@]2(CC=C(C)C)C(=O)[C@@]1(CC=C(C)C)C(=O)C(C(=O)c1cc(O)c(O)cc1O)=C2O [GUTTIFERONE L] has an IC50 of 3 µg/mL (≈ 4.85 µM).
